According to patent US11229664B2, “Treatment of myelosuppression” (priority 2012, dated 2022):
Several values for one entry are separate records, joined by “and”; a condition that tells them apart may be missing. Equal values may be shown once. Read-outs that look alike come from different tables or passages of the source.

Columns and labels:
[1] = system: white blood cells; assay: Clinical trial, metastatic pancreatic cancer: total white blood cell count; format: in vivo, human; conditions: individual patients, ODSH adjunctive to gemcitabine and nab-paclitaxel
Description: Male and non-pregnant, non-lactating, female patients, aged 18 to 75, with histologically confirmed metastatic adenocarcinoma of the pancreas were enrolled in the trial. […] In addition, patients were screened for blood chemistry levels, including serum creatinine levels within normal limits, serum transaminase levels of […] the upper limit of normal, and bilirubin levels of 1.5 times the upper limit of normal […].
Treatment consisted of a series of 28-day cycles, wherein the last day of one cycle (e.g., day 28, cycle 1) was immediately followed by the first day of the next cycle (e.g., day 1, cycle 2). In each 28-day treatment cycle, patients were dosed at days 1, 8, and 15 (three weeks of medication followed by one week of rest) as follows. First, nab-paclitaxel at 125 mg/m^2 was administered as an intravenous infusion over 30 minutes. […] Nab-paclitaxel and gemcitabine therapy was given as described in the prescribing information for Abraxane® and Gemzar®. See also, Von Hoff et al., 2011, J. Clinical Oncology 29:1-7). […]
An initial run-in period was conducted in which ten patients were treated with the gemcitabine, nab-paclitaxel, and ODSH regimen described above. After all ten patients had completed at least one 28-day cycle, the data were reviewed and an open-label randomized study initiated, with two arms (ODSH arm and Control arm). In the ODSH arm, the dosing regimen was the same as in the run-in period (gemcitabine, nab-paclitaxel, and ODSH). In the Control arm, patients were given the same gemcitabine and nab-paclitaxel regimen as in the run-in period, but without ODSH.
Blood was drawn before treatment administration on days 1, 8, and 15 of each 28 day cycle. Platelet counts, total white blood cell counts, and absolute neutrophil counts were performed. Grading of thrombocytopenia and/or neutropenia was performed according to the following standards: […]

[2] = for Deaths: N = 10 per group
Description: All experiments were conducted on female athymic nude mice (Hsd:Athymic Nude-Foxn1nu) supplied by Harlan (Indianapolis, Ind.). Mice were received at four weeks of age, 12-15 grams in weight, and were acclimated for seven days prior to handling. The mice were housed in microisolator cages (Lab Products, Seaford, Del.) and maintained under specific pathogen-free conditions. All procedures were carried out under appropriate institutional guidelines for animal care.
Seven days following inoculation, tumors were measured using calipers and tumor weight was calculated using the animal study management software. […] Body weights were recorded when the mice were randomized and were taken twice weekly thereafter in conjunction with tumor measurements, on each of Days 1, 4, 8, 11, 15, 18, 22, 26, 30, 33, and 36.
The study was terminated when the vehicle control reached an endpoint of 1500 mg, on Day 36.

[3] = system: platelets; assay: Clinical trial, metastatic pancreatic cancer: platelet count / thrombocytopenia grade; format: in vivo, human
Description: Male and non-pregnant, non-lactating, female patients, aged 18 to 75, with histologically confirmed metastatic adenocarcinoma of the pancreas were enrolled in the trial. […] Treatment consisted of a series of 28-day cycles, wherein the last day of one cycle (e.g., day 28, cycle 1) was immediately followed by the first day of the next cycle (e.g., day 1, cycle 2). […] Nab-paclitaxel and gemcitabine therapy was given as described in the prescribing information for Abraxane® and Gemzar®. See also, Von Hoff et al., 2011, J. […] As a substantially non-anticoagulant heparinoid, ODSH can be administered at a dose that is greater than the fully anticoagulant dose of unfractionated heparin, without concern for anticoagulant effect, as shown in the Results below. An initial run-in period was conducted in which ten patients were treated with the gemcitabine, nab-paclitaxel, and ODSH regimen described above. After all ten patients had completed at least one 28-day cycle, the data were reviewed and an open-label randomized study initiated, with two arms (ODSH arm and Control arm). In the ODSH arm, the dosing regimen was the same as in the run-in period (gemcitabine, nab-paclitaxel, and ODSH). In the Control arm, patients were given the same gemcitabine and nab-paclitaxel regimen as in the run-in period, but without ODSH. […] Platelet counts, total white blood cell counts, and absolute neutrophil counts were performed. Grading of thrombocytopenia and/or neutropenia was performed according to the following standards: [table]

[4] = Table 13, first column group, headed Day 22
[5] = Table 13, second column group, headed Day 26
[6] = ten mice per group, BxPC-3 xenograft study
[7] = ODSH 4 mg/kg bolus + 0.375 mg/kg/hr 48 h, adjunct to gemcitabine/nab-paclitaxel
[8] = ODSH adjunct to gemcitabine/nab-paclitaxel

Substance: substantially 2-O, 3-O desulfated heparin [ODSH]
- White Blood Cell Counts ([1]; Cycle 1 Day 1): 6.8 ×10^3/μl blood and 7.7 ×10^3/μl blood and 7.3 ×10^3/μl blood and 5.0 ×10^3/μl blood and 4.6 ×10^3/μl blood and 6.5 ×10^3/μl blood and 5.7 ×10^3/μl blood and 8.7 ×10^3/μl blood and 6.0 ×10^3/μl blood and 7.2 ×10^3/μl blood
- White Blood Cell Counts ([1]; Cycle 1 Day 8): 4.4 ×10^3/μl blood and 6.2 ×10^3/μl blood and 2.7 ×10^3/μl blood and 5.3 ×10^3/μl blood and 2.8 ×10^3/μl blood and 5.1 ×10^3/μl blood and 2.3 ×10^3/μl blood and 5.7 ×10^3/μl blood and 3.4 ×10^3/μl blood and 4.1 ×10^3/μl blood
- White Blood Cell Counts ([1]; Cycle 1 Day 15): 4.2 ×10^3/μl blood and 5.1 ×10^3/μl blood and 2.1 ×10^3/μl blood and 6.0 ×10^3/μl blood and 2.0 ×10^3/μl blood and 3.2 ×10^3/μl blood and 2.7 ×10^3/μl blood (2×) and 5.4 ×10^3/μl blood and 1.5 ×10^3/μl blood
- White Blood Cell Counts ([1]; Cycle 2 Day 1): 4.9 ×10^3/μl blood and 7.8 ×10^3/μl blood and 17.8 ×10^3/μl blood and 5.9 ×10^3/μl blood and 6.5 ×10^3/μl blood and 5.7 ×10^3/μl blood and 11.0 ×10^3/μl blood and 3.4 ×10^3/μl blood and 10.8 ×10^3/μl blood
- White Blood Cell Counts ([1]; Cycle 2 Day 8): 10.2 ×10^3/μl blood and 4.5 ×10^3/μl blood and 4.6 ×10^3/μl blood and 2.9 ×10^3/μl blood and 6.4 ×10^3/μl blood
- White Blood Cell Counts ([1]; Cycle 2 Day 15): 3.4 ×10^3/μl blood and 4.3 ×10^3/μl blood and 5.4 ×10^3/μl blood and 2.4 ×10^3/μl blood and 4.4 ×10^3/μl blood
- White Blood Cell Counts ([1]; Cycle 3 Day 1): 6.0 ×10^3/μl blood and 7.6 ×10^3/μl blood and 4.8 ×10^3/μl blood and 5.8 ×10^3/μl blood
- White Blood Cell Counts ([1]; Cycle 3 Day 8): 4.8 ×10^3/μl blood and 2.7 ×10^3/μl blood
- White Blood Cell Counts ([1]; Cycle 3 Day 15): 4.3 ×10^3/μl blood
- White Blood Cell Counts ([1]; Cycle 4 Day 1): 8.5 ×10^3/μl blood
- White Blood Cell Counts ([1]; Cycle 4 Day 8): 6.0 ×10^3/μl blood
- White Blood Cell Counts ([1]; Screen): 8.5 ×10^3/μl blood and 6.7 ×10^3/μl blood (2×) and 6.3 ×10^3/μl blood and 6.5 ×10^3/μl blood and 10.8 ×10^3/μl blood and 10.6 ×10^3/μl blood and 6.0 ×10^3/μl blood and 7.3 ×10^3/μl blood
- Day by which the mice recovered their weight ([2]; BxPC-3 xenograft study): ≤ 22 days
- Day on which maximum weight loss was reached ([2]; BxPC-3 xenograft study): 11 days
- Tolerability / toxicity of the treatment regimen (in words) ([2]; BxPC-3 xenograft study, doses of Table 1): well-tolerated
- Average Weight ([2]; Day 1): 21.54 g
- % Weight Loss or Gain ([2]; Day 4): −1.67%
- Average Weight ([2]; Day 4): 21.18 g
- % Weight Loss or Gain ([2]; Day 8): −1.67%
- Average Weight ([2]; Day 8): 21.18 g
- % Weight Loss or Gain ([2]; Day 11): −2.74%
- Average Weight ([2]; Day 11): 20.95 g
- % Weight Loss or Gain ([2]; Day 15): −2.14%
- Average Weight ([2]; Day 15): 21.08 g
- % Weight Loss or Gain ([2]; Day 18): −2.32%
- Average Weight ([2]; Day 18): 21.04 g
- % Weight Loss or Gain ([2]; Day 22 (Table 12)): 0.09%
- Average Weight ([2]; Day 22 (Table 12)): 21.56 g
- % Weight Loss or Gain ([2]; Day 26 (Table 12)): 2.79%
- Average Weight ([2]; Day 26 (Table 12)): 22.14 g
- % Weight Loss or Gain [2, 4]: 4.60%
- Average Weight [2, 4]: 22.53 g
- % Weight Loss or Gain [2, 5]: 4.27%
- Average Weight [2, 5]: 22.46 g
- Deaths ([2]; Total deaths on or before Day 26): 0
- Deaths ([2]; Total deaths on or before Day 36): 0
- Maximum weight loss ([2]; body weight of mice, BxPC-3 xenograft study): 2.7%
- Starting Weight ([2]; group mean body weight at start, dose, schedule and route per group as in table): 21.54 g
- % Weight Loss or Gain ([2]; mouse, in vivo): 4.92%
- Average Weight ([2]; mouse, in vivo): 22.60 g
- Mice with bruising on the tails or abdomen (site of injection) [2, 6]: All ten
- Mice with swelling of the tail [2, 6]: One of the ten
- Patients with platelet count at beginning of fourth cycle greater than at beginning of first cycle [3, 7]: 9 out of 10
- Patients with platelet count at beginning of third cycle greater than at beginning of first cycle [3, 7]: Eight out of 9
- Patients with platelet count at beginning of second cycle greater than at beginning of first cycle ([3]; ODSH 4 mg/kg bolus + 0.375 mg/kg/hr 48 h, days 1, 8, 15 of 28-day cycles, adjunct to gemcitabine/nab-paclitaxel): Ten out of 10 and 10/10
- Patients exhibiting thrombocytopenia at the start of the second cycle [3, 8]: None
- Patients exhibiting thrombocytopenia at the start of the third cycle [3, 8]: one of 8
- Patients with platelet counts higher at the beginning of cycle 3 than at the beginning of cycle 2 [3, 8]: 6/9
- Platelet Count, Cycle 1 Day 1 ([3]; ODSH adjunctive to gemcitabine and nab-paclitaxel, blood drawn before treatment administration (before any chemotherapy), individual patients): 313 ×10^3/μl blood and 264 ×10^3/μl blood and 191 ×10^3/μl blood and 274 ×10^3/μl blood and 276 ×10^3/μl blood and 120 ×10^3/μl blood and 271 ×10^3/μl blood and 342 ×10^3/μl blood and 429 ×10^3/μl blood and 180 ×10^3/μl blood
